Patent US9980951B2, “Image guided therapy for cancer” (UNIVERSITY OF IOWA RESEARCH FOUNDATION, priority 2015, dated 2018)
Several values for one entry are separate records, joined by “and”; a condition that tells them apart may be missing. Equal values may be shown once.

Experiments:
[1] = system: normal human fibroblasts (NHFs); experiment: Clonogenic survival assay; format: cell-based; settings: NHF, 5.0 μM, 24 h
Procedure: To further test the hypothesis that TPVP derivatives can be designed to decrease viability in melanoma cells relative to normal cells, clonogenic survival assays were performed (FIG. 6). The clonogenic cell survival assay is used often as a measure of the ability of cells to proliferate indefinitely. In these studies, cells were exposed to varying concentrations of TPVP derivatives for 24 h. After exposure to cytotoxic compounds, cells were collected, counted, and reseeded at a low density. The cells then undergo a series of doublings, forming cell colonies. These colonies were then counted, and the resulting cell survival curve reports the dose of the agent used to produce an insult and the fraction of cells retaining their ability to reproduce. […] Specifically, 18:2-TPVP decreases clonogenic survival to <50% at 5.0 μM for both A375 and SK-Mel-3 cells and <20% at 7.5 μM. […]
A375 cells were plated in 60 mm culture dishes at a density of 1.5×10^5 cells per dish. […] After the exposure period, cells were collected, counted, and plated at either 500 (A375 and NHF) or 3000 (SK-Mel-3) cells per 60 mm dish. […]

SK-Mel-3 melanoma cells [2] = experiment: JC-1 mitochondrial membrane potential assay; format: cell-based, human; settings: SK-Mel-3, 10 μM, 1 h
Description: (§1) JC-1 mitochondrial membrane potential assays were used to determine that TPVP derivatives are designed to accumulate in melanoma cell mitochondria and disrupt the membrane potential of melanoma cells relative to nonmalignant cells (FIG. 2).
(§2) Mitochondrial membrane potential is an important parameter of mitochondrial function. In healthy cells (with high mitochondrial potential), JC-1 spontaneously forms complexes known as J-aggregates that fluoresce in the red region. In unhealthy cells with a low mitochondria membrane potential or cells whose membrane integrity is disrupted with uncoupling agents (e.g., FCCP), JC-1 remains in the monomeric form, with fluorescence in the green region. Therefore, the ratio of Jaggregate to monomer fluorescence is an indicator of mitochondrial membrane potential and cellular health.
(§3) Experiments were performed using human metastatic BRAFV600E mutant A375 (ATCC CRL-1619) human melanoma cells, metastatic BRAFV600E mutant SK-Mel-3 (ATCC HTB-69) human melanoma cells isolated from a lymph node metastasis, and nonmetastatic normal human fibroblasts (NHFs) provided by the Coriell Institute (AG13442). All cells were cultured at 21% O2 at 37° C. in a humidified 5% CO2 incubator. Cells were detached with 0.25% trypsin-EDTA. A375 and NHF cells were cultured in high-glucose DMEM medium supplemented with 1% PenStrep and 10% FBS. SK-Mel-3 cells were cultured in high-glucose McCoy's 5A medium supplemented with 1% PenStrep and 15% FBS. All medium components were purchased from Gibco.
(§4) A375 cells were plated in a black, clear-bottom 96 well plate at a density of 1.5×10^4 cells per well. SK-Mel-3 and NHF cells were plated in a black, clear-bottom 96 well plate at a density of 2.5×10^4 cells […]. After 24 h, cells were treated with 2.5, 5.0, or 10 μM 18:2-TPVP or DPDVP for 1 h. Cells were then washed and incubated with 2.0 μM JC-1 (Cayman) in PBS containing 5 mM pyruvate (Gibco) for 1 h. Control dishes were treated with 1.0 μM FCCP (Sigma-Alrich) 30 min prior to measurement. Cells were washed and analyzed in PBS using a spectrophotometer at 530 and 590 nm.

A375 melanoma cells [3] = experiment: JC-1 mitochondrial membrane potential assay; format: cell-based, human; settings: A375, 10 μM, 1 h
Description: as §1, §2, §3, §4

SK-Mel-3 melanoma cells [4] = experiment: Clonogenic survival assay; format: cell-based, human; settings: 24 h; for clonogenic survival relative to the untreated control: SK-Mel-3, 5.0, 7.5, and 10 μM
Procedure: (§5) To further test the hypothesis that TPVP derivatives can be designed to decrease viability in melanoma cells relative to normal cells, clonogenic survival assays were performed (FIG. 6). The clonogenic cell survival assay is used often as a measure of the ability of cells to proliferate indefinitely. In these studies, cells were exposed to varying concentrations of TPVP derivatives for 24 h. After exposure to cytotoxic compounds, cells were collected, counted, and reseeded at a low density. The cells then undergo a series of doublings, forming cell colonies. These colonies were then counted, and the resulting cell survival curve reports the dose of the agent used to produce an insult and the fraction of cells retaining their ability to reproduce. […] Specifically, 18:2-TPVP decreases clonogenic survival to <50% at 5.0 μM for both A375 and SK-Mel-3 cells and <20% at 7.5 μM.
as §3
(§6) A375 cells were plated in 60 mm culture dishes at a density of 1.5×10^5 cells per dish. SKMel-3 and NHF cells were plated in 60 mm culture dishes at a density of 2.5×10^5 cells per dish. After 48 h, cells were treated with 1.0, 2.5, 5.0, 7.5, or 10 μM of PTVP, DPDVP, or 18:2-TPVP for 24 h. After the exposure period, cells were collected, counted, and plated at either 500 (A375 and NHF) or 3000 (SK-Mel-3) cells per 60 mm dish. Following a 2 week incubation, medium was removed and colonies fixed with ethanol and stained with Coommassie Brilliant Blue. Data were normalized to each untreated control, and the surviving fraction was reported.

A375 melanoma cells [5] = experiment: Clonogenic survival assay; format: cell-based, human; settings: 24 h; for clonogenic survival relative to the untreated control: A375, 5.0, 7.5, and 10 μM
Procedure: as §5, §3, §6

SK-Mel-3 melanoma cells [6] = experiment: Intracellular ATP measurement (CellTiter-Glo luciferase assay); format: cell-based, human; settings: SK-Mel-3, 5.0 μM and 10 μM, 24 h
Procedure: (§7) TPVP derivatives embed in the mitochondria of malignant cells and increase the oxidation state relative to NHFs. Therefore, intracellular ATP levels were measured to determine the potential impact of TPVP-based treatment on cell viability (FIG. 4). This platereader-based luciferase assay is a selective method for determining the number of viable cells by quantifying the ATP-dependent oxygenation of luciferin. […] Specifically, A375 ATP levels were depleted from 1.5 mM to less than 0.8 mM after exposure to all three compounds at 10 μM.
as §3
(§8) A375 cells were plated in 60 mm culture dishes at a density of 1.5×10^5 cells per dish. SK-Mel-3 and NHF cells were plated in 60 mm culture dishes at a density of 2.5×10^5 cells per dish. After 48 h, cells were exposed to 2.5, 5.0 or 10 μM of PTVP, DPDVP, or 18:2-TPVP for 24 h and analyzed for intracellular ATP content using the CellTiter-Glo Luminescent Cell Viability Assay (Promega).

A375 melanoma cells [7] = experiment: as above; format: cell-based, human; settings: 24 h; for concentration of ATP relative to the untreated control: A375, 2.5, 5.0, or 10 μM
Procedure: as §7, §3, §8

[8] = system: normal human fibroblasts (NHFs); experiment: JC-1 mitochondrial membrane potential assay; format: cell-based; settings: 10 μM, 1 h
Description: as §1, §2
Experiments were performed using human metastatic BRAFV600E mutant A375 (ATCC CRL-1619) human melanoma cells, metastatic BRAFV600E mutant SK-Mel-3 (ATCC HTB-69) human melanoma cells isolated from a lymph node metastasis, and nonmetastatic normal human fibroblasts (NHFs) provided by the Coriell Institute (AG13442). All cells were cultured at 21% O2 at 37° C. in a humidified 5% CO2 incubator. […]
A375 cells were plated in a black, clear-bottom 96 well plate at a density of 1.5×10^4 cells per well. […] Cells were washed and analyzed in PBS using a spectrophotometer at 530 and 590 nm.

SK-Mel-3 melanoma cells [9] = experiment: Confocal microscopy, mitochondrial accumulation and colocalization with Mito Tracker Red; format: cell-based, human; settings: SK-Mel-3, 1 μM, 3 h
Procedure: (§9) Confocal microscopy was used to determine that 10-TPVP preferentially accumulates in the mitochondria of melanoma cells and fluoresces upon aggregation in mitochondrial membranes of melanoma cells relative to nonmalignant cells (FIG. 1). […] NHF cells have a basal level of 10-TPVP accumulation, supporting the hypothesis that TPVP derivatives preferentially accumulate by targeting the hyperpolarized mitochondrial membrane (FIG. 1; Column II).
as §3
(§10) A375, SK-Mel-3, and NHF cells were cultured at a density of 2.5×104, 5×104, or 7.5×104, respectively, on a 4 well glass chamber slide for 24 h prior to exposure to test compounds. […]

A375 melanoma cells [10] = experiment: as above; format: cell-based, human; settings: A375, 1 μM, 3 h
Procedure: as §9, §3, §10

SK-Mel-3 melanoma cells [11] = experiment: DHE oxidation; format: cell-based, human; settings: SK-Mel-3, 10 μM, 1 h, normalized to untreated control
Description: (§11) Oxidation-sensitive dihydroethidium (DHE) was used to determine if mitochondrial-accumulated TPVP derivatives alter the oxidation state of melanoma cells (FIG. 3). DHE is a blue-fluorescent superoxide-sensitive probe that accumulates in the cytosol of healthy cells. However, upon reaction with superoxide, DHE intercalates with DNA and forms a red-fluorescent product (2-hydroxyethidium). Therefore, the shift to red fluorescence is an indicator of the change in the redox state of the cell.
as §3
(§12) A375 cells were plated in a black, clearbottom 96 well plate at a density of 1.5×10^4 cells per well. […] Cells were analyzed using a spectrophotometer at 590 nm.

A375 melanoma cells [12] = experiment: DHE oxidation; format: cell-based, human; settings: A375, 10 μM, 1 h, normalized to untreated control
Description: as §11, §3, §12

[13] = system: normal human fibroblasts (NHFs); experiment: DHE oxidation; format: cell-based; settings: 10 μM, 1 h
Description: as §11, §3, §12

[14] = system: normal human fibroblasts (NHFs); experiment: Confocal microscopy, mitochondrial accumulation and colocalization with Mito Tracker Red; format: cell-based; settings: 1 μM, 3 h
Procedure: as §9, §3, §10

| SMILES | decrease of JC-1 aggregate to monomer fluorescence ratio (SK-Mel-3 melanoma cells [2]) | decrease of JC-1 aggregate to monomer fluorescence ratio (A375 melanoma cells [3]) | clonogenic survival relative to the untreated control (SK-Mel-3 melanoma cells [4]) | clonogenic survival relative to the untreated control (A375 melanoma cells [5]) | concentration of ATP relative to the untreated control (A375 melanoma cells [7]) | decrease of JC-1 aggregate to monomer fluorescence ratio [8] | also measured |
| --- | --- | --- | --- | --- | --- | --- | --- |
| CCCCC/C=C\C/C=C\CCCCCCCC[n+]1ccc(C(=C(c2ccccc2)c2ccccc2)c2ccccc2)cc1.[Br-] [18:2-TPVP, 1-((9Z,12Z)-Octadeca-9,12-dien-1-yl)-4-(1,2,2-triphenylvinyl)pyridin-1-ium Bromide] | 40% | 55% | significantly decrease | significantly decrease | significantly decreases | 20% | clonogenic survival [1]: 75%; clonogenic survival (SK-Mel-3 melanoma cells [4]; SK-Mel-3, 5.0 μM): < 50% and 30%; clonogenic survival (SK-Mel-3 melanoma cells [4]; SK-Mel-3, 7.5 μM): < 20%; clonogenic survival relative to NHFs (SK-Mel-3 melanoma cells [4]; SK-Mel-3, 2.5, 5.0, 7.5, and 10 μM): significant decrease; clonogenic survival (A375 melanoma cells [5]; A375, 5.0 μM): < 50% and 40%; clonogenic survival (A375 melanoma cells [5]; A375, 7.5 μM): < 20%; clonogenic survival relative to NHFs (A375 melanoma cells [5]; A375, 2.5, 5.0, 7.5, and 10 μM): significant decrease; intracellular ATP relative to NHFs (SK-Mel-3 melanoma cells [6]): significantly decreases; intracellular ATP relative to NHFs (A375 melanoma cells [7]; A375, all concentrations (1, 5, or 10 μM)): significantly decreases |
| CCCCCCCCCC[n+]1ccc(C(=C(c2ccccc2)c2ccccc2)c2ccccc2)cc1.[Br-] [Compound 10-TPVP, 1-Decyl-4-(1,2,2-triphenylvinyl)pyridin-1-ium Bromide] | – | – | – | – | – | – | accumulation in cells by confocal microscopy (SK-Mel-3 melanoma cells [9]): easily observable; accumulation in cells by confocal microscopy (A375 melanoma cells [10]): easily observable; increase of DHE oxidation (SK-Mel-3 melanoma cells [11]): 2 fold; increase of DHE oxidation (A375 melanoma cells [12]): 3 fold; DHE fluorescence intensity [13]: does not significantly alter; accumulation in mitochondria by confocal microscopy [14]: does not significantly accumulate |
| CCCCCCCCCC[n+]1ccc(C(=C(c2ccccc2)c2ccccc2)c2cc[n+](CCCCCCCCCC)cc2)cc1.[Br-].[Br-] [DPDVP, 4,4′-(2,2-Diphenylethene-1,1-diyl)bis(1-decylpyridin-1-ium) Bromide] | 30% | 50% | significantly decrease | significantly decrease | significantly decreases | 10% | – |
| CCCCCCCCCC[n+]1ccc(C(=C(c2cc[n+](CCCCCCCCCC)cc2)c2cc[n+](CCCCCCCCCC)cc2)c2ccccc2)cc1.[Br-].[Br-].[Br-] [PTVP, 4,4′,4″-(2-Phenylethene-1,1,2-triyl)tris(1-decylpyridin-1-ium) Bromide] | – | – | significantly decrease | significantly decrease | significantly decreases | – | – |
